Experimental data taken from US9018383B2, “Acylamino-substituted cyclic carboxylic acid derivatives and their use as pharmaceuticals” (Sanofi, priority 2009, dated 2015).

These molecules were tested against human Edg-2 receptor (Homo sapiens, UniProt Q92633) (assay: Determination of Edg-2 receptor inhibition by FLIPR measurements (LPA-mediated calcium liberation)). Conditions: CHO cells overexpressing human Edg-2 receptor, LPA 100 nM, fluo-4 calcium fluorescence; read-out: Inhibitory concentrations IC50 for inhibition of the Edg-2 receptor.
Format: cell-based
Description: A) Determination of Edg-2 Receptor Inhibition by Fluorescence Imaging Plate Reader (FLIPR) Measurements
The inhibition of the Edg-2 receptor (LPA1 receptor) by the compounds of the invention was quantified by the inhibitory effect on the LPA-mediated calcium liberation in a cell-based calcium fluorescence assay by use of Chinese hamster ovarian (CHO) cells in which the human Edg-2 receptor was stably overexpressed (Flp-In system, Invitrogen). […] Changes in intracellular calcium were determined by fluorescence measurement with the calcium-sensitive dye fluo-4 (Invitrogen) in a fluorescence imaging plate reader (FLIPR, […]).
CHO cells stably overexpressing the human Edg-2 receptor were seeded (40.000 per well) in black clear-bottomed poly-D-lysine-coated 96 well plates (Becton Dickinson, Biocoat cellware) approximately 18-24 h prior to the experiments. Cells were grown in an incubator at 37° C., 5% carbon dioxide and 95% humidity in cell culture media based on F-12 glutamax media (Gibco, #31765) supplemented with 1% (vol/vol) penicilline/streptomycine (PAN, #P06-07100), 10% (vol/vol) fetal calf serum (FCS, PAA, #A15-151) and hygromycin B (Invitrogen, #10687-010) 300 mg/l (final concentrations).
Prior to the FLIPR experiment, cells were loaded with fluo-4 acetoxymethyl ester (fluo-4 AM, Invitrogen, #F14202) for 60 min in an incubator at 37° C., 5% carbon dioxide and 95% humidity in dye-loading buffer consisting of Hanks' Balanced Salt Solution (HBSS, Invitrogen, #14065049) supplemented with fluo-4 AM at 2 μM (all data given for final concentration), Pluronic® F-127 0.05% (vol/vol) (Invitrogen, #P-3000 MP), HEPES 20 mM (Gibco, #15630), probenecid 2.5 mM (Sigma, #P-8761) and bovine serum albumin 0.05% (BSA, Sigma, #A-6003), adjusted to pH 7.5 with sodium hydroxide. During cell loading, fluo-4 AM is cleaved by intracellular esterase resulting in trapping of the dye fluo-4 within the cells. Loading was terminated by washing of the cells in a cell washer (Tecan Power washer) three times with the buffer specified afore but without fluo-4 AM and BSA. This latter buffer was also used as the buffer in the subsequent cell fluorescence measurements.
The dye-loaded and washed cells were pre-incubated for approximately 5 min with various concentrations of the test compound added as a solution in DMSO (0.3% vol/vol maximum final concentration of DMSO), or with DMSO in the respective concentration only (positive control). Subsequent addition of LPA (18:1, 1-oleoyl-sn-glycerol 3-phosphate; 100 nM final concentration) leads to liberation of intracellular calcium from internal stores resulting in a large transient increase of the fluo-4 fluorescence signal which was monitored over approximately 3 min. The percent inhibition caused by the test compound was determined from the maximum fluorescence response after LPA addition to cells pre-incubated with the compound as compared to the maximum fluorescence response after LPA addition to cells pre-incubated with DMSO only. All fluorescence values were corrected for the baseline fluorescence values obtained with cells which were pre-incubated with DMSO only and were not treated with LPA (baseline control). All measurements were performed in triplicate. From the percent inhibitions the inhibitory concentration IC50 was determined.

Chain of human Edg-2 receptor (Q92633 whole entry): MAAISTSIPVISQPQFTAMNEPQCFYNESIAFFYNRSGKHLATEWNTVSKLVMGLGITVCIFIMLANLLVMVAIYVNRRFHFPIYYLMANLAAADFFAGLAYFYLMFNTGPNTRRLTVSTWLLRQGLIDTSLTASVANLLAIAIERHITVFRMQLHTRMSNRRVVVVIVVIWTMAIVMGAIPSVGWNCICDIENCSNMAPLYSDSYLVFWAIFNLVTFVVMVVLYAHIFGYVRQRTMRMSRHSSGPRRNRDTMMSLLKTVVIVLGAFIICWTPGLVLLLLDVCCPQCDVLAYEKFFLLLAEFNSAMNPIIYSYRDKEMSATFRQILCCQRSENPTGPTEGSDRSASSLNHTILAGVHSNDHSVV

| SMILES | IC50 [nM] |
| --- | --- |
| COc1ccc(C(=O)NC2(C(=O)O)CCCCCC2)cc1OCCc1cc(C)ccc1F [Example 1, 1-{3-[2-(2-Fluoro-5-methyl-phenyl)-ethoxy]-4-methoxy-benzoylamino}-cycloheptanecarboxylic acid] | 100 to 1000 |
| COc1ccc(C(=O)NC2(C(=O)O)CCCCCC2)cc1OCCc1cccc(C)c1 [Example 2, 1-[4-Methoxy-3-(2-m-tolyl-ethoxy)-benzoylamino]-cycloheptanecarboxylic acid] | < 100 |
| COc1ccc(C(=O)NC2(C(=O)O)CCCCCC2)cc1OCCc1cc(Cl)ccc1F [Example 3, 1-{3-[2-(5-Chloro-2-fluoro-phenyl)-ethoxy]-4-methoxy-benzoylamino}-cycloheptanecarboxylic acid] | < 100 |
| COc1ccc(C(=O)NC2(C(=O)O)CCCCCC2)cc1OCCc1c(C)n[nH]c1C [Example 4] | 100 to 1000 |
| COc1ccc(C(=O)NC2(C(=O)O)CCCCCC2)cc1OCCc1cc(OC(F)(F)F)ccc1F [Example 5] | < 100 |
| COc1ccc(C(=O)NC2(C(=O)O)CCCCCC2)cc1OCCc1cccs1 [Example 6] | 100 to 1000 |
| COc1cccc(CCOc2cc(C(=O)NC3(C(=O)O)CCCCCC3)ccc2OC)c1 [Example 7] | < 100 |
| COc1ccc(C(=O)NC2(C(=O)O)CCCCCC2)cc1OCCc1ccccc1 [Example 8] | < 100 |
| COc1ccc(C(=O)NC2(C(=O)O)CCCCCC2)cc1OCC(C)c1ccccc1 (stereo not drawn) [Example 9] | < 100 |
| COc1ccc(C(=O)NC2(C(=O)O)CCCCCC2)cc1OCCc1cccc(Cl)c1 [Example 10] | < 100 |
| COc1ccc(C(=O)NC2(C(=O)O)CCCCCC2)cc1OCCc1ccsc1 [Example 11, 1-{3-[2-(thiophen-3-yl)-ethoxy]-4-methoxy-benzoylamino]-cycloheptanecarboxylic acid] | 100 to 1000 |
| COc1ccc(C(=O)NC2(C(=O)O)CCCCCC2)cc1OCC1CC=CCC1 (stereo not drawn) [Example 12] | 100 to 1000 |
| COc1ccc(C(=O)NC2(C(=O)O)CCCCCC2)cc1OCCc1ccccc1F [Example 13] | < 100 |
| CCC(COc1cc(C(=O)NC2(C(=O)O)CCCCCC2)ccc1OC)c1ccccc1 (stereo not drawn) [Example 14] | 100 to 1000 |
| COc1ccc(C(=O)NC2(C(=O)O)CCCCCC2)cc1OCCc1ccc(Cl)cc1Cl [Example 15] | 1000 to 30000 |
| COc1ccc(C(=O)NC2(C(=O)O)CCCCCC2)cc1OCCc1c(F)cccc1Cl [Example 16] | < 100 |
| COc1ccc(C(=O)NC2(C(=O)O)CCCCCC2)cc1OCCc1cc(Cl)ccc1Cl [Example 17] | < 100 |
| COc1ccc(C(=O)NC2(C(=O)O)CCCCCC2)cc1OCCc1cc(C)ccc1C [Example 18] | 100 to 1000 |
| COc1ccc(C(=O)NC2(C(=O)O)CCCCCC2)cc1OCCc1ccccc1C [Example 19] | 100 to 1000 |
| COc1ccc(C(=O)NC2(C(=O)O)CCCCCC2)cc1OCCc1cc(F)ccc1F [Example 20] | < 100 |
| COc1ccc(C(=O)NC2(C(=O)O)CCCCCC2)cc1OCCc1cccc(Cl)c1F [Example 21] | 100 to 1000 |
| COc1ccc(C(=O)NC2(C(=O)O)CCCCCC2)cc1OCC1(c2ccccc2)COC1 [Example 22] | < 100 |
| COc1ccc(C(=O)NC2(C(=O)O)CCCCCCC2)cc1OCCc1cccc(C)c1 [Example 23, 1-[4-Methoxy-3-(2-m-tolyl-ethoxy)-benzoylamino]-cyclooctanecarboxylic acid] | 100 to 1000 |
| COc1ccc(C(=O)NC2(C(=O)O)CCCCCCC2)cc1OCCc1cc(C)ccc1F [Example 24, 1-{3-[2-(2-Fluoro-5-methyl-phenyl)-ethoxy]-4-methoxy-benzoylamino}-cyclooctanecarboxylic acid] | 100 to 1000 |
| COc1ccc(C(=O)NC2(C(=O)O)CCCOCC2)cc1OCCc1cccc(C)c1 (stereo not drawn) [Example 25, 4-[4-Methoxy-3-(2-m-tolyl-ethoxy)-benzoylamino]-oxepane-4-carboxylic acid] | 1000 to 30000 |
| COc1ccc(C(=O)NC2(C(=O)O)CCCC(C)CC2)cc1OCCc1cccc(C)c1 (stereo not drawn) [Example 26] | < 100 |
| COc1ccc(C(=O)NC2(C(=O)O)CCC(C(F)(F)F)CC2)cc1OCCc1cccc(C)c1 (stereo not drawn) [Example 28] | < 100 |

More lines, now with the values ahead:

| IC50 [nM] | SMILES |
| --- | --- |
| < 100 | COc1ccc(C(=O)N[C@@]2(C(=O)O)C[C@@H]3CC[C@H]2O3)cc1OCCc1cccc(C)c1 (racemic) [Example 126, (1R,2S,4S)-2-[4-Methoxy-3-(2-m-tolyl-ethoxy)-benzoylamino]-7-oxa-bicyclo[2.2.1]heptane-2-carboxylic acid and (1S,2R,4R)-2-[4-methoxy-3-(2-m-tolyl-ethoxy)-benzoylamino]-7-oxa-bicyclo[2.2.1]heptane-2-carboxylic acid] |
| 100 to 1000 | COc1ccc(C(=O)NC2(C(=O)O)CCCC2OCc2ccccc2)cc1OCCc1cccc(C)c1 (single isomer, unassigned) [Example 66, 2-Benzyloxy-1-[4-methoxy-3-(2-m-tolyl-ethoxy)-benzoylamino]-cyclopentanecarboxylic acid] |
| < 100 | COc1ccc(C(=O)NC2(C(=O)O)CCC(C(C)C)CC2)cc1OCCc1cccc(C)c1 (stereo not drawn) [Example 29] |
| < 100 | CCC1CCC(NC(=O)c2ccc(OC)c(OCCc3cccc(C)c3)c2)(C(=O)O)CC1 (stereo not drawn) [Example 30] |
| < 100 | COc1ccc(C(=O)NC2(C(=O)O)CC3CCC(C3)C2)cc1OCCc1cccc(C)c1 (stereo not drawn) [Example 31] |
| 1000 to 30000 | COc1ccc(C(=O)NC2(C(=O)O)CCCCC2C)cc1OCCc1cccc(C)c1 (stereo not drawn) [Example 32] |
| < 100 | COc1ccc(C(=O)NC2(C(=O)O)CCC(C)C2)cc1OCCc1cccc(C)c1 (stereo not drawn) [Example 33] |
| 1000 to 30000 | COc1ccc(C(=O)NC2(C(=O)O)CCC2)cc1OCCc1cccc(C)c1 [Example 34] |
| 1000 to 30000 | COc1ccc(C(=O)NC2(C(=O)O)CCCC2)cc1OCCc1cccc(C)c1 [Example 35] |
| 100 to 1000 | COc1ccc(C(=O)NC2(C(=O)O)CCSCC2)cc1OCCc1cccc(C)c1 [Example 36] |
| 1000 to 30000 | COc1ccc(C(=O)NC2(C(=O)O)CCOCC2)cc1OCCc1cccc(C)c1 [Example 37] |
| 100 to 1000 | COc1ccc(C(=O)NC2(C(=O)O)CCCCC2)cc1OCCc1cccc(C)c1 [Example 38] |
| 1000 to 30000 | COc1ccc(C(=O)NC2(C(=O)O)C[C@H]3CC[C@]2(C)C3(C)C)cc1OCCc1cccc(C)c1 (stereo partly drawn) [Example 39] |
| 100 to 1000 | C=CC1CC1(NC(=O)c1ccc(OC)c(OCCc2cccc(C)c2)c1)C(=O)O (stereo not drawn) [Example 40] |
| < 100 | CCC1CC1(NC(=O)c1ccc(OC)c(OCCc2cccc(C)c2)c1)C(=O)O (stereo not drawn) [Example 41] |
| < 100 | COc1ccc(C(=O)N[C@]2(C(=O)O)CC[C@@H](C)CC2)cc1OCCc1cccc(C)c1 [Example 43, trans-1-[4-Methoxy-3-(2-m-tolyl-ethoxy)-benzoylamino]-4-methyl-cyclohexanecarboxylic acid] |
| 100 to 1000 | COc1ccc(C(=O)NC2(C(=O)O)CCC(F)CC2)cc1OCCc1cccc(C)c1 (stereo not drawn) [Example 44] |
| 100 to 1000 | COc1ccc(C(=O)NC2(C(=O)O)CCC(C)(C)CC2)cc1OCCc1cccc(C)c1 [Example 45] |
| < 100 | COc1ccc(C(=O)NC2(C(=O)O)CCCC(C)CC2)cc1OCCc1cccc(C)c1 (stereo not drawn) [Example 46] |
| < 100 | COc1ccc(C(=O)NC2(C(=O)O)CC3CCC(C3)C2)cc1OCCc1cccc(C)c1 (stereo not drawn) [Example 47] |
| 1000 to 30000 | COc1ccc(C(=O)NC2(C(=O)O)CCCCC2C)cc1OCCc1cccc(C)c1 (stereo not drawn) [Example 48] |
| 1000 to 30000 | COc1ccc(C(=O)NC2(C(=O)O)CCCC2C)cc1OCCc1cccc(C)c1 (stereo not drawn) [Example 49] |
| < 100 | CCC1CCC(NC(=O)c2ccc(OC)c(OCCc3cccc(C)c3)c2)(C(=O)O)CC1 (stereo not drawn) [Example 50] |
| < 100 | COc1ccc(C(=O)NC2(C(=O)O)CCCC3(CC2)OCCO3)cc1OCCc1cccc(C)c1 (stereo not drawn) [Example 51, 8-[4-Methoxy-3-(2-m-tolyl-ethoxy)-benzoylamino]-1,4-dioxa-spiro[4.6]undecane-8-carboxylic acid] |
